Entries after “also recorded” stand apart in the source; their conditions may differ.
Columns and labels:
neonatal mouse hearts = conditions: symN lesions in neonatal mouse hearts; cited from earlier work
hPSC-derived CMs = conditions: CMs alone, without physical connection with symNs; cited from earlier work
symNs within the hSCAs = conditions: nicotine 1 μM, wk5 hSCAs
Experimental: To assess symN activity, calcium (Ca^2+) imaging was performed using Fluo-4 Ca^2+ labeling. To be able to distinguish Ca^2+ fluxes in symNs and not in cardiac tissues, symNblast were differentiated using the EF1-RFP reporter hPSC line and mixed with unlabeled cardiac progenitors (FIG. 3F).

hPSC-derived symNs = conditions: nicotine treatment; cited from earlier work
hSCAs [1] = experiment: labetalol treatment during hSCA development: assembloid size and cell count; assay type: cell-based, human
Experimental: (§1) The effect of SymN activation on heart development has been reported, potentially through NE and adrenergic signaling^22,23. […] To test if the symNs in hSCAs play a regulatory role on cardiac development and maturation, the assembloids were treated with α- and β-adrenergic receptor antagonist labetalol (LAB, 1 μM) to fully block the NE signaling during the growth of the hSCAs (FIG. 4B). The drug was given from wk3, the stage when the assembloid growth almost reaches its plateau (FIG. 1E). Given that symN activity may promote cellular hyperplastic to hypertrophic transition of CM^22,23, the overall size of hSCAs was compared on wk5 after LAB treatment.

hSCAs [2] = experiment: RT-qPCR of wk5 hSCAs for cardiac maturity markers after labetalol treatment; assay type: cell-based, human; conditions: LAB 1 μM given from wk3, wk5 hSCAs, vs DMSO
Experimental: (§2) 0.5×10^6 cells were collected using Trizol (Invitrogen, 15596026) for each sample. Reverse transcription with 1 μg total RNA was performed using iScript™ Reverse Transcription Supermix (Bio-Rad, 170884). SYBR green (Bio-Rad) RT-qPCR was ran using CFX96 Touch Deep Well Real-Time PCR Detection System (Bio-Rad), and analyzed by CFX Maestro.
as §1

hypoxic hSCAs = experiment: low oxygen (hypoxia-induced) cardiac infarction model on wk5 hSCAs; assay type: cell-based, human
Experimental: as §2
Wk5 hSCAs were fed with hSCA medium and placed into the hypoxia chamber (incubator subchamber system with O2/CO2 setpoint control, BioSpherix) with 10% O2, control group was maintained in regular culture condition (21% O2). hSCAs in both conditions were fed with fresh hSCA medium every 3 days for 10 days.
To test the effect of sympathetic input to cardiac function in the assembloids in a diseased state, a strategy was developed to model myocardial infarction. A model of myocardial infarction in cardiac organoids has been described^55. In this model, a moderate hypoxic environment (10% O2) was applied, which prevented massive and sudden cell death in 3D cardiac microtissues and allowed the observation of the progression of infarction. In addition to hypoxia, exogenous NE was added to the cardiac organoids to mimic the effects of increased sympathetic tone to the heart. […] The hypoxic stress stimulated overproduction of endogenous NE from symNs in hSCAs, measured via the NS510 probe and ELISA (FIG. 5C). […]

NCCc1cc(O)c(O)cc1O [6-OHDA, 6-hydroxydopamine]
proliferation of CMs (neonatal mouse hearts): increased

CC(C)NCC(O)c1ccc(O)c(O)c1 (stereo not drawn) [isoproterenol]
improvement of CM maturity (mature cardiac gene expression, functional cardiac activity) (hPSC-derived CMs): not sufficient to induce such maturity improvement

CN1CCCC1c1cccnc1 (stereo not drawn) [nicotine]
hSCA beating efficiency (symNs within the hSCAs): increased hSCA beating efficiency | spontaneous firing of action potentials (hPSC-derived symNs): upregulated

CC(CCc1ccccc1)NCC(O)c1ccc(O)c(C(N)=O)c1 (stereo not drawn) [LAB, labetalol]
overall size of hSCAs (hSCAs [1]; LAB 1 μM given from wk3, compared on wk5, vs DMSO): Differences in assembloid size were not observed; also recorded: not altered | hSCA cell number (hSCAs [1]; LAB-treated organoids compared to control, wk5): not altered | expression of markers of CM maturity (CX43, α-ACTININ, and CD36), RT-qPCR (hSCAs [2]): decreased expressions

CC(C)NCC(O)COc1cccc2ccccc12 (stereo not drawn) [propranolol]
impaired expression of Ca2+ handling genes, RT-qPCR (hypoxic hSCAs; propranolol 1 μM in addition to low oxygen (10% O2, 10 days)): rescued | cardiac fibrosis caused by hypoxic stress (hypoxic hSCAs; propranolol along with the hypoxic stress): rescued
